Source: patent publication US20230137943A1, “PHOTOPROXIMITY PROFILING OF PROTEIN-PROTEIN INTERACTIONS IN CELLS” (The University of Chicago, priority 2019, published 2023)

Tests used:
[1] = biological target: T1, recombinant SNAP-Tag protein (Homo sapiens, UniProt P16455, A127T/A154D/C150Q/C62A/E30R/G131K/G132T/G153L/K125A/K32I/L33F/M134L/N157G/Q115S/Q116H/R128A/R135S/S151G/S152D/S159E); test: In vitro photocleavage assay (in-gel fluorescence); format: biochemical; settings: recombinant SNAP-Tag labeled with probe, 0-10 minutes irradiation
T1 construct: His6 (N)
T1 sequence (P16455 1-182 E30R/K32I/L33F/C62A/Q115S/Q116H/K125A/A127T/R128A/G131K/G132T/M134L/R135S/C150Q/S151G/S152D/G153L/A154D/N157G/S159E): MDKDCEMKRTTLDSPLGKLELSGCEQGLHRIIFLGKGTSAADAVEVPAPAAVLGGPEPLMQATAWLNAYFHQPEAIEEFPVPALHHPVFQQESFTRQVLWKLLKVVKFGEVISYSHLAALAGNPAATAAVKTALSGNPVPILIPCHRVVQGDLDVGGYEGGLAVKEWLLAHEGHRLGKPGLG
Experimental: In vitro photocleavage assay: Recombinant purified His6-SNAP-Tag (20 μg) was incubated in 200 μL DPBS containing 5 μM PP1 for 1 hour at 37° C. Afterward, the reaction was divided into six 30 μL aliquots, placed on ice, and irradiated with 365 nm light using a SPECTROLINKER™ XL-1500a UV crosslinker (Spectroline, Spectronics, Corporation, Westbury, N.Y., United States of America). Samples were successively removed from irradiation after 0, 0.5, 1, 2.5, 5, 10 minutes of irradiation, diluted with loading buffer, and run on SDS-PAGE gel. Photocleavage was judged by in-gel fluorescence visualized using a ChemiDoc imaging system (Bio-Rad Laboratories, Hercules, Calif., United States of America) scanning for fluorescein.
A first generation P3 chemical proteomic method was designed to facilitate several activities, including: 1) specific probe labeling of POIs in live cells; 2) spatial and temporal control of probe photoactivation and proximal labeling; 3) subsequent enrichment and identification of labeled proteins after cell lysis. […] The BnG targeting element is connected to dual photoreactive elements, a central substituted nitroveratryl carbamate, and a tethered diazirine, which upon irradiation with 365 nm light will simultaneously trigger cleavage and diffusion of the probe away from the SNAP-Tag-POI, as well as unmasking of a highly reactive carbene, respectively. […]

[2] = biological target: T2, SNAP-FLAG/α-FLAG antibody complex (Homo sapiens, UniProt P16455, A127T/A154D/C150Q/C62A/E30R/G131K/G132T/G153L/K125A/K32I/L33F/M134L/N157G/Q115S/Q116H/R128A/R135S/S151G/S152D/S159E); test: Proximity-labeling assay in cell lysate (anti-biotin / anti-mouse Western blot); format: biochemical; settings: 500 nM probe
T2 construct: host or cells: clarified lysate of HEK293T cells transiently or stably expressing SnapFlag
T2 sequence (P16455 1-182 E30R/K32I/L33F/C62A/Q115S/Q116H/K125A/A127T/R128A/G131K/G132T/M134L/R135S/C150Q/S151G/S152D/G153L/A154D/N157G/S159E limits assumed): T1 sequence (P16455 1-182 E30R/K32I/L33F/C62A/Q115S/Q116H/K125A/A127T/R128A/G131K/G132T/M134L/R135S/C150Q/S151G/S152D/G153L/A154D/N157G/S159E)
Experimental: Proximity-labeling assays: Clarified cell lysate from HEK293T cells either transiently (see FIG. 4B) or stably (see FIG. 4C) expressing SNAP-Tag (NEB #N9183S; New England Biolabs, Ipswich, Mass., United States of America) or SnapFlag was normalized to 1 mg/mL and 250 μL aliquots incubated in a microcentrifuge tube with either 500 nM of PP1. PP2, or DMSO for 1 hour at 37° C. Washed anti-FLAG M2 affinity gel, 40 μL of a 50% slurry, was transferred to each reaction in 750 μL of DPBS and the resultant suspension left to rotate overnight at 4° C. (Sigma #A2220; Sigma-Aldrich, St. Louis, Mo., United States of America). Samples were then spun down at 4000×g, supernatant aspirated, and the resin washed with 1M urea in DPBS (1 mL×8) followed by DPBS (1 mL). After being resuspended in 100 μL of DPBS, the samples were placed on ice where they were irradiated with 365 nm light for 10 minutes (SPECTROLINKER™ XL-1500a UV crosslinker, Spectronics Corporation, Westbury, N.Y., United States of America). Once irradiated, the beads were washed with 100 mM pH 3.5 glycine buffer (100 μL×2) and DPBS (1 mL). To elute the remaining SNAP-FLAG and resin-bound FLAG-antibody the beads were boiled for 5 minutes at 95° C. in 20 μL 4×-loading buffer containing 8% SDS and 400 mM DTT. After which, 60 μL of DPBS was added and the suspension boiled at 95° C. for an additional 5 minutes. The samples were then run on SDS-PAGE gel and transferred to nitrocellulose where they were stained with anti-mouse IR dye (Li-cor #926-68072; Li-cor Biosciences, Lincoln, Nebr., United States of America) and streptavidin IR dye (Li-cor #926-32230; Li-cor Biosciences, Lincoln, Nebr., United States of America). Bands corresponding to biotinylated proteins and the FLAG antibody were visualized using an Odyssey infrared imager (Li-cor Biosciences, Lincoln, Nebr., United States of America).
To study if proximal protein interactors could be labeled in response to the dual photoactivation of PP1 in vitro, the interaction between SNAP-FLAG protein and an α-FLAG monoclonal antibody (mAb) was examined in cell lysate. In this assay, proximal biotinylation of both heavy and light chains of the antibody was expected, as well as self-labeling of the SNAP-FLAG protein, under conditions where the protein complex is formed and the PP1 probe is photoactivated. To test this hypothesis in the presence and absence of the protein-protein complex, SNAP protein that contained or lacked the FLAG epitope was treated with PP1 probe, followed by incubation with α-FLAG mAb, bead-based pulldown of the complexes, and subsequent photoactivation. […] The requirement for photoactivation of PP1, as well as a related probe PP2 (see FIG. 6) was tested by forming the SNAP-FLAG/α-FLAG complexes, and then comparing protein biotinylation with or without irradiation.
To study if proximal protein interactors could be labeled in response to the dual photoactivation of AC1 (see FIG. 12A) in vitro, the interaction between SNAP-FLAG protein and an α-FLAG monoclonal antibody (mAb) was examined in cell lysate. Briefly, 250 μL aliquots of cell lysate (HEK293T, SNAP-Flag) was incubated in a microcentrifuge tube with either 500 nM of photoprobe, or DMSO for 1 hour at 37° C. Washed anti-FLAG M2 affinity gel, 40 μL of a 50% slurry, was transferred to each reaction in 750 μL of DPBS and the resultant suspension left to rotate overnight at 4° C. (Sigma #A2220; Sigma-Aldrich, St. Louis, Mo., United States of America). Samples were then spun down at 4000×g, supernatant aspirated, and the resin washed with 1M urea in DPBS (1 mL×8) followed by DPBS (1 mL). After being resuspended in 250 μL of DPBS, the +UV samples were placed on ice where they were irradiated with 365 nm light for 10 minutes (SPECTROLINKER™ XL-1500a UV crosslinker, Spectronics Corporation, Westbury, N.Y., United States of America). Once irradiated, the beads were washed with 1 M Urea (1 mL×2) and DPBS (1 mL×2). […]

| SMILES | Fluorescence of labeled protein after irradiation at 365 nm (photocleavage) [1] | Proximal labeling of heavy and light chains upon irradiation ([2]; 365 nm light 10 minutes (FIG. 4C, FIG. 12B)) | Proximal labeling of heavy/light chain without irradiation ([2]; not exposed to 365 nm light (FIG. 4C)) |
| --- | --- | --- | --- |
| COc1cc(C(C)OC(=O)NCCNC(=S)Nc2ccc3c(c2)C2(OC3=O)c3ccc(O)cc3Oc3cc(O)ccc32)c([N+](=O)[O-])cc1OCCCC(=O)NCc1ccc(COc2nc(N)nc3[nH]cnc23)cc1 (stereo not drawn) [PF-BnG] | complete loss of fluorescence within minutes | – | – |
| COc1cc(C(C)OC(=O)NCCCCC(NC(=O)CCC2(C)N=N2)C(=O)NCCNC(=O)CCCCC2SCC3NC(=O)NC32)c([N+](=O)[O-])cc1OCCCC(=O)NCCOCCOC(=O)NCc1ccc(COc2nc(N)nc3[nH]cnc23)cc1 (stereo not drawn) [PP2] | – | a discrete biotinylated band was formed on both heavy and light chains | No proximal labeling |
